Source: patent US7605272B2, “IGF-1R inhibitor” (Kyowa Hakko Kirin Co., Ltd., priority 2005, dated 2009)
Counter-ions that a name gives are not always drawn.

Legend:
[1] = molecular target: T1, IGF-1R (Homo sapiens, UniProt P08069); experiment: IGF-1R inhibitory activity (kinase reaction, time-resolved fluoroimmunoassay); type: biochemical; conditions: test compound 10 μmol/L
T1 construct: purchased Upstate Co. 14-465
Experimental: The IGF-1R inhibitory activity was measured in the following manner.
As IGF-1R, active recombinant enzyme (Catalog No. 14-465) purchased from Upstate Co., was used. To 96 well plate (FIA-PLATE BLACK 96 well FALT-BOTTOM HIGH BINDING, Greiner Bio-one, Catalog No. 655077) coated with NeutroAvidin (Pierce, Catalog No. 31000), biotinylated polyglutamic acid-tyrosine peptide (Nihon Schering K.K., Catalog No. 61GT0BAA) was immobilized and then blocked with 0.25% gelatin to be used as a plate for measuring the kinase reaction. Separately was prepared a solution containing at final concentrations, IGF-1R (200 μg/L), Tris.HCl(pH 7.5)(20 mmol/L), Na3VO4(0.1 mmol/L), MgCl2(1 mmol/L), MnCl2(10 mmol/L), ATP(10 mmol/L), 2-mercaptoethanol (0.04%), BSA(Bovine Serum Albumin) (0.1%), DMSO(0.1%), test compound (10 μmol/L). The solution (each 50 μL) was added to the well of the plate for measuring the kinase reaction and then, enzyme reaction was performed for 30 minutes at 24° C. The plate was washed with TBS-T [10 mmol/L Tris Cl (pH 7.5), 150 mmol/L NaCl, 0.05% Tween 20 (Bio-Rad, Catalog No. 170-6531)] 4 times, then reacted with europium-labeled anti-phosphotyrosine antibody, further washed with TBS-T 4 times and then, measured with time-resolved fluoroimmunoassay (excitation wavelength 340 nm, measuring wavelength 615 nm). The value of a well to which the test compound had not been added was considered as 100% and that of a well where the enzyme and the test compound had not been added was considered as 0%. The relative activity (%) of the well which was added with enzyme and the test compound was measured and by subtracting the calculated value from 100, IGF-1R inhibitory activity of the test compound (%) was determined.

[2] = tested on: NCI-H929; experiment: Cytostatic activity on human multiple myeloma cell line NCI-H929 (WST-1); type: cell-based; conditions: Homo sapiens, NCI-H929, 72 h, 10 μmol/L, 72 hours; read-out: cytostatic rate (%) H929 (10 μmol/L)
Experimental: The cytostatic rates of a test compound on human multiple myeloma cell lines NCI-H929 and KMS-11, were determined in the following manner.
For culturing NCI-H929, Roswell Park Memorial Institute's Medium (RPMI) 1640 (Gibco, Catalog No. 11875-093) containing 15% fetal bovine serum (Gibco, Catalog No. 10099-141), 1 mmol/L sodium pyruvate (Gibco, Catalog No. 11360-070), 10 mmol/L HEPES (Gibco, Catalog No. 15630-80), 4.5 g/L glucose (Sigma, Catalog No. G8769), 0.05 mmol/L 2-mercaptethanol (Nacalai Tesque, Catalog No. 21418-42) and penicillin/streptomycin (1:1) (Gibco, Catalog No. 15140-122) was used. For culturing KMS-11 cell, RPMI 1640 medium containing 10% fetal bovine serum and penicillin/streptomycin (1:1) was used. Each 80 μL of the NCI-H929 cell having a concentration of 1×10^5 cells/mL (or the KMS-11 cell having a concentration of 7.5×10^4 cells/mL) was inoculated to wells of a TC MICROWELL 96U plate (Nalge Nunc International, Catalog No. 163320) and was cultured in a 5% carbon dioxide gas incubator at 37° C. for 24 hours. Each 20 μL of a solution of the test compound in dimethyl sulfoxide (DMSO) which was prepared to make the final concentration to 1 μmol/L or 10 μmol/L, was added to each well. Each 20 μL of DMSO was added to the control well and the blank well to a final concentration of 0.1%. After adding the test compound, the cells were incubated in a 5% carbon dioxide gas incubator at 37° C. for 72 hours except for the blank well. After adding 20 μL of WST-1 reagent {4-[3-(4-iodophenyl)-2-(4-nitrophenyl)-2H-5-tetrazolio]-1,3-benzene disulfonate sodium salt} (Roche Diagnostics K.K., Catalog No. 1644807), which was diluted to 50% by RPMI medium to each well, the cells were further incubated at 37° C. for 2 hours. Then, the absorbances at 450 nm (reference wavelength: 690 nm) were measured with a microplate spectrophotometer SPECTRA max 340PC (Molecular Devices Corporation). The relative growth (%) of a well to which the test compound had been added and cultured for 72 hours was determined while setting the absorbance of a well to which not the test compound but DMSO alone had been added and cultured for 72 hours (control) as 100% and that of a well where the drugs are added (blank) as 0%. The cytostatic rate (%) of the test compound was determined by subtracting the calculated relative growth from 100.

[3] = IGF-1R active recombinant enzyme

T1 sequence (P08069 959-1367 limits assumed): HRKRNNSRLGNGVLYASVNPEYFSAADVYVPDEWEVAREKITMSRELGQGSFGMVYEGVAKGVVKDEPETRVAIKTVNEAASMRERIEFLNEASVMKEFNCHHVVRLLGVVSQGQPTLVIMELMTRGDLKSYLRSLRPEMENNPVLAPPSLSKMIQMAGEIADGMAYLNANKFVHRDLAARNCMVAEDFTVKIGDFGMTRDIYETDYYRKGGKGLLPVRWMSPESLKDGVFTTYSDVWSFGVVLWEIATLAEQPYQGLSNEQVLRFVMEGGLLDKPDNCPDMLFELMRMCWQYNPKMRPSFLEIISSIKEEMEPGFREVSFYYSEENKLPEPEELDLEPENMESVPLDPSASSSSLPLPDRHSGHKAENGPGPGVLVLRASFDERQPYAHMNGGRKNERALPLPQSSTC

inhibition at 10 µM [1, 3] [%]	SMILES	also measured
100	O=C1c2ccccc2C(=O)N1c1cc(Cl)ccc1/C=C/c1n[nH]c2ccccc12 [Compound 258, (E)-2-{5-chloro-2-[2-(1H-indazol-3-yl)vinyl]phenyl}isoindole-1,3-dione]	
99.6	O=C(c1ccc(/C=C/c2n[nH]c3ccccc23)c(N2C(=O)c3ccccc3C2=O)c1)N1CCOCC1 [Compound 276, (E)-N-{2-[2-(1H-indazol-3-yl)vinyl]-5-(morpholin-4-ylcarbonyl)phenyl}isoindole-1,3-dione]	
99	CN(C)C(=O)c1ccc(/C=C/c2n[nH]c3ccccc23)c(N2C(=O)c3ccccc3C2=O)c1 [Compound 285, (E)-3-(1,3-dioxo-1,3-dihydroisoindol-2-yl)-4-[2-(1H-indazol-3-yl)vinyl]-N,N-dimethylbenzamide]	
96.1	O=C(c1ccc(/C=C/c2n[nH]c3ccccc23)c(N2C(=O)c3ccccc3C2=O)c1)N1CCN(CCO)CC1 [Compound 286, (E)-2-[5-[4-(2-hydroxyethyl)piperazin-1-ylcarbonyl]-2-[2-(1H-indazol-3-yl)vinyl]phenyl]isoindole-1,3-dione]	
97.7	O=C(Nc1cc(C(=O)N2CCN(CCCO)CC2)ccc1/C=C/c1n[nH]c2ccccc12)c1ccco1 [Compound 291, (E)-N-{5-[4-(3-hydroxypropyl)piperazin-1-ylcarbonyl]-2-[2-(1H-indazol-3-yl)vinyl]phenyl}furan-2-carboxamide]	
92.9	O=C1c2ccccc2C(=O)N1c1cc(N2CCN(CCO)CC2)ccc1/C=C/c1n[nH]c2ccccc12 [Compound 299, (E)-2-{5-[4-(2-hydroxyethyl)piperazin-1-yl]-2-[2-(1H-indazol-3-yl)vinyl]phenyl}isoindole-1,3-dione]	
102	Nc1cccc2c1CN(c1cc(CN3CCN(CCCO)CC3)ccc1/C=C/c1n[nH]c3ccccc13)C2=O [Compound 314, (E)-4-amino-2-{5-[4-(3-hydroxypropyl)piperazin-1-ylmethyl]-2-[2-(1H-indazol-3-yl)vinyl]phenyl}-2,3-dihydroisoindole-1-one]	
103	CN1CCN(C(=O)c2ccc(/C=C/c3n[nH]c4ccccc34)c(N3Cc4cccc(N)c4C3=O)c2)CC1 [Compound 316, (E)-7-amino-2-{2-[2-(1H-indazol-3-yl)vinyl]-5-(4-methylpiperazin-1-ylcarbonyl)phenyl}-2,3-dihydroisoindole-1-one]	
102	Nc1cccc2c1CN(c1cc(C(=O)N3CCOCC3)ccc1/C=C/c1n[nH]c3ccccc13)C2=O [Compound 324, (E)-4-amino-2-{2-[2-(1H-indazol-3-yl)vinyl]-5-(morpholin-4-ylcarbonyl)phenyl}-2,3-dihydroisoindole-1-one]	
105	Nc1cccc2c1CN(c1cc(CN3CCN(CCO)CC3)ccc1/C=C/c1n[nH]c3ccccc13)C2=O [Compound 345, (E)-4-amino-2-{5-[4-(2-hydroxyethyl)piperazin-1-ylmethyl]-2-[2-(1H-indazol-3-yl)vinyl]phenyl}-2,3-dihydroisoindole-1-one]	
97.1	CS(=O)(=O)c1ccc(C(=O)Nc2ccccc2/C=C/c2n[nH]c3ccccc23)s1 [Compound 354, (E)-N-{2-[2-(1H-indazol-3-yl)vinyl]phenyl}-5-(methylsulfonyl)thiophene-2-carboxamide]	

Second part, the compound before the results:

SMILES	inhibition at 10 µM [1, 3] [%]	also measured
CN(C(=O)c1ccccc1)c1ccccc1/C=C/c1n[nH]c2ccccc12 [Compound 38, (E)-N-{2-[2-(1H-indazol-3-yl)vinyl]phenyl}-N-methylbenzamide]	93	inhibition at 10 µM [2]: 65%
O=C(Nc1ccc(C(=O)Nc2ccccc2/C=C/c2n[nH]c3ccccc23)s1)c1cccs1 [Compound 61, (E)-N-{2-[2-(1H-indazol-3-yl)vinyl]phenyl}-5-[(thiophen-2-ylcarbonyl)amino]thiophene-2-carboxamide]	94.5	inhibition at 10 µM [2]: 124%
CC(C)C(=O)Nc1ccc(C(=O)Nc2ccccc2/C=C/c2n[nH]c3ccccc23)s1 [Compound 62, (E)-N-{2-[2-(1H-indazol-3-yl)vinyl]phenyl}-5-isobutyrylaminothiophene-2-carboxamide]	95.7	inhibition at 10 µM [2]: 120%
COc1cc(N)c(/C=C/c2n[nH]c3ccccc23)cc1OC [Compound 92, (E)-2-[2-(1H-indazol-3-yl)vinyl]-4,5-dimethoxyphenylamine]		inhibition at 10 µM [1]: 66.5%; inhibition at 10 µM [2]: 70.1%
Cc1ccsc1C(=O)Nc1cc(C(=O)O)ccc1/C=C/c1n[nH]c2ccccc12 [Compound 98, (E)-4-[2-(1H-indazol-3-yl)vinyl]-3-[(3-methylthiophen-2-ylcarbonyl)amino]benzoic acid]		inhibition at 10 µM [1]: 98.4%; inhibition at 10 µM [2]: 66.3%
Cc1ccsc1C(=O)Nc1cc(C(=O)N2CC[C@@H](N)C2)ccc1/C=C/c1n[nH]c2ccccc12 [Compound 102, (E)-(R)—N-{5-(3-aminopyrrolidine-1-ylcarbonyl)-2-[2-(1H-indazol-3-yl)vinyl]phenyl}-3-methylthiophene-2-carboxamide]		inhibition at 10 µM [1]: 97.8%; inhibition at 10 µM [2]: 125%
Cc1ccsc1C(=O)Nc1cc(C(=O)N2CC[C@@H](N)C2)ccc1/C=C/c1n[nH]c2ccccc12 [Compound 221, (E)-(R)—N-{2-[2-(1H-indazol-3-yl)vinyl]-5-(3-aminopyrrolidin-1-ylcarbonyl)phenyl}-3-methylthiophene-2-carboxamide hydrochloride]	95.8	
Cc1ccsc1C(=O)Nc1ccc(N2CCOCC2)cc1/C=C/c1n[nH]c2ccccc12 [Compound 225, (E)-N-{2-[2-(1H-indazol-3-yl)vinyl]-4-(morpholin-4-yl)phenyl}-3-methylthiophene-2-carboxamide hydrochloride]	95	
Cn1cccc1C(=O)Nc1ccc(N2CCOCC2)cc1/C=C/c1n[nH]c2ccccc12 [Compound 226, (E)-N-{2-[2-(1H-indazol-3-yl)vinyl]-4-(morpholin-4-yl)phenyl}-1-methyl-1H-pyrrole-2-carboxamide hydrochloride]	97.8	
O=C1c2ccccc2C(=O)N1c1ccc(F)cc1/C=C/c1n[nH]c2ccccc12 [Compound 250, (E)-2-{4-fluoro-2-[2-(1H-indazol-3-yl)vinyl]phenyl}isoindole-1,3-dione]	98.9	
O=C(Nc1cc(Cl)ccc1/C=C/c1n[nH]c2ccccc12)c1cccs1 [Compound 257, (E)-{5-chloro-2-[2-(1H-indazol-3-yl)vinyl]phenyl}thiophene-2-carboxamide]		inhibitory activity (%) at 10 μmol/L [1, 3]: 101.8%
CN1CCN(C(=O)c2ccc(/C=C/c3n[nH]c4ccccc34)c(N3C(=O)c4ccccc4C3=O)c2)CC1 [Compound 287]		inhibitory activity (%) at 10 μmol/L [1, 3]: 97.1%
Cc1c(C(=O)Nc2ccccc2/C=C/c2n[nH]c3ccccc23)sc2ccccc12 [Compound 351, (E)-{2-[2-(1H-indazol-3-yl)vinyl]phenyl}-3-methylbenzo[b]thiophene-2-carboxamide]		inhibitory activity (%) at 10 μmol/L [1, 3]: 99.1%
